# Assay results: patent US11147272B2, “Pyridone compounds and agricultural and horticultural fungicides comprising the same as active ingredients” (MITSUI CHEMICALS AGRO, INC., priority 2017, dated 2021)
# Assays:
# [1] = test system: Magnaporthe grisea; assay: whole plant or invertebrate; assay type: in vivo; details: Blast on rice; control value class
# [2] = test system: Alternaia brassicicola; assay: Test Example C: Alternaria sooty spot on cabbage; assay type: in vivo; details: Alternaria sooty spot on cabbage; control value class
# Description: Seeds of a test plant (cabbage variety: Shikidori) were planted and cultivated until the cotyledons extended.
# <Control Value> Control value=100{1−(n/3)}
# [3] = test system: Puccinia recondita; assay: Test Example E: Brown rust on wheat; assay type: in vivo; details: Brown rust on wheat; control value class
# [4] = test system: Phytophthora infestans; assay: whole plant or invertebrate; assay type: in vivo; details: Late blight on tomato; control value class
# [5] = test system: Botrytis cinerea; assay: Test Example B: Gray mold on tomato; details: Gray mold on tomato; control value class
# [6] = test system: Plasmopara viticola; assay: Test Example G: Downy mildew on vine; details: Downy mildew on vine; 250 ppm spray, 7 to 10 days after inoculation
# [7] = test system: Colletotrichum orbiculare; assay: Test Example H: Anthracnose on cucumber; details: Anthracnose on cucumber; 250 ppm spray, 6 to 10 days after inoculation
# [8] = test system: Blumeria graminis f. sp. hordei; assay: Test Example D: Powdery mildew on barley; details: Powdery mildew on barley; control value class
SMILES,Test A control value [1],Test C control value [2],Test E control value [3],Test F control value [4],Test B control value [5],Test G control value [6],Test H control value [7],Test D control value [8]
CCn1c(-c2ccc(O)cc2Cl)c(CC(C)C)cc(Cl)c1=O [compound 254],L (50% or less control value),H (more than 50% control value),H (more than 50% control value),H (more than 50% control value),H (more than 50% control value),L (50% or less control value),H (more than 50% control value),L (50% or less control value)
CCn1c(-c2ccccc2F)c(CC(C)C)cc(Cl)c1=O [compound 255],H (more than 50% control value),H (more than 50% control value),H (more than 50% control value),L (50% or less control value),H (more than 50% control value),L (50% or less control value),H (more than 50% control value),H (more than 50% control value)
CCOC(C)(c1cc(Cl)c(=O)n(CC)c1-c1c(F)cc(F)cc1F)C1CCCC1 (stereo not shown) [compound 256],L (50% or less control value),L (50% or less control value),H (more than 50% control value),L (50% or less control value),L (50% or less control value),H (more than 50% control value),L (50% or less control value),H (more than 50% control value)
CCCOC(C)(c1cc(Cl)c(=O)n(CC)c1-c1c(F)cc(F)cc1F)C1CCCC1 (stereo not shown) [compound 257],L (50% or less control value),H (more than 50% control value),L (50% or less control value),L (50% or less control value),L (50% or less control value),L (50% or less control value),H (more than 50% control value),L (50% or less control value)
CCn1c(-c2c(F)cc(F)cc2F)c(C(O)C2CC2)cc(Cl)c1=O (stereo not shown) [compound 258],H (more than 50% control value),H (more than 50% control value),H (more than 50% control value),L (50% or less control value),H (more than 50% control value),H (more than 50% control value),H (more than 50% control value),H (more than 50% control value)
CCn1c(-c2c(F)cc(F)cc2F)c(C(OC(C)=O)C2CC2)cc(Cl)c1=O (stereo not shown) [compound 259],H (more than 50% control value),H (more than 50% control value),H (more than 50% control value),L (50% or less control value),H (more than 50% control value),H (more than 50% control value),H (more than 50% control value),H (more than 50% control value)
CCn1c(-c2c(F)cc(F)cc2F)c(C(=O)C2CC2)cc(Cl)c1=O [compound 260],H (more than 50% control value),H (more than 50% control value),H (more than 50% control value),H (more than 50% control value),H (more than 50% control value),L (50% or less control value),H (more than 50% control value),H (more than 50% control value)
CCn1c(-c2c(F)cc(F)cc2F)c(C(C)(O)C2CC2)cc(Cl)c1=O (stereo not shown) [compound 261],H (more than 50% control value),H (more than 50% control value),H (more than 50% control value),L (50% or less control value),H (more than 50% control value),H (more than 50% control value),H (more than 50% control value),H (more than 50% control value)
CCn1c(-c2ccccc2Cl)c(CC(C)C)ccc1=O [compound 262],L (50% or less control value),H (more than 50% control value),H (more than 50% control value),L (50% or less control value),H (more than 50% control value),L (50% or less control value),H (more than 50% control value),H (more than 50% control value)
CCc1cc(F)ccc1-c1c(CC(C)C)cc(Cl)c(=O)n1CC [compound 263],H (more than 50% control value),H (more than 50% control value),H (more than 50% control value),L (50% or less control value),H (more than 50% control value),H (more than 50% control value),H (more than 50% control value),H (more than 50% control value)
CCn1c(-c2ccccc2Cl)c(CC(C)C)cc(Br)c1=O [compound 264],L (50% or less control value),H (more than 50% control value),H (more than 50% control value),L (50% or less control value),H (more than 50% control value),L (50% or less control value),H (more than 50% control value),H (more than 50% control value)
